Measured values from US20160213635A1, “COMPOSITIONS USEFUL IN THE PREVENTION OR TREATMENT OF SKIN CANCER” (GIULIANI S.P.A., priority 2013, published 2016).

Columns and labels:
[1] = system: NHKs cells; assay: Flow cytometric (annexin V) assessment of apoptosis induced by UV irradiation and subsequent treatment with G01; type: cell-based, human; conditions: post-treatment 90 μM; UVA 25 J/cm^2, UVB 80 mJ/cm^2; 24 h
Description: (§1) The NHKs cells were plated in the specific culture medium and maintained in culture for 24±2 h to allow adhesion to the plate. Each experimental condition was plated in duplicate. Subsequently, the plates identified as +UVA, +G01/UVA, +UVB, and +G01/UVB were respectively exposed, in the irradiation medium, to doses of UVA of 25 J/cm^2 and UVB of 80 mJ/cm^2, while the control plates (Ctr) and those treated only with the compound under examination (G01) were maintained in the dark and at room temperature for a period of time equal to the irradiation time. The irradiation medium was then replaced with the culture medium containing the compound G01 in a concentration of 90 μM. Based on the preliminary results obtained on a broader time range, a post-treatment time of 24 h was selected, after which the plates were processed according to the procedure given in the user manual of the specific kit for annexin V flow cytometric analysis. The positivity for annexin V in each condition tested (treatment with the compound of the invention under examination and/or UVA/UVBirradiation) was compared with the positivity in the control cells.

[2] = system: primary cultures of human keratinocytes, NHKs; assay: Cell viability (incorporation of NR) after UV irradiation and subsequent treatment with G01; type: cell-based; conditions: post-treatment; UVA 10 J/cm^2, UVB 25 mJ/cm^2; particularly 48 h after irradiation; highest concentration tested 90 μM
Description: The cells were plated in the specific culture medium and maintained in culture for 24±2 h to allow adhesion to the plate. The cells in the plates identified as +UVA and +UVB were respectively exposed, in the irradiation medium, to doses of UVA of 10 J/cm^2 and UVB of 25 mJ/cm^2, while the control plate (Ctr) was maintained in the dark and at room temperature for a period of time equal to the irradiation time. The irradiation medium was then replaced with the culture medium, containing the compound G01 in concentrations selected based on the cell viability results obtained after treatment with the same compound (see above). The cell viability was measured (incorporation of NR) at a time of 24±2 h and 48±2 h after the irradiation, in the absence and the presence of UVA/UVB irradiation and/or treatment with the compound of the invention G01. The cell viability values for each condition tested were compared with the value obtained from the control and plotted on a graph to highlight any differences between the various experimental conditions.

[3] = system: NHKs cells; assay: Flow cytometric (annexin V) assessment of UV induced apoptosis after pre-treatment with G01; type: cell-based, human; conditions: pre-treatment 90 μM 24±2 h; UVA 25 J/cm^2, UVB 80 mJ/cm^2; 24 h
Description: as §1, with “duplicate. The cells were treated for 24±2 h with G01, in a concentration of 90 μM.” for “duplicate.”, “medium.” for “medium containing the compound G01 in a concentration of 90 μM.”, “analysis (Annexin V), a typical assay to detect the early stages of apoptosis.” for “analysis.”, “G01” for “the compound of the invention under examination”, “UVA/UVB irradiation)” for “UVA/UVBirradiation)”

[4] = system: NHKs cells; assay: ELISA CPDs determination after UVB irradiation and subsequent treatment with G01; type: cell-based, human; conditions: post-treatment 90 μM; UVB 25 mJ/cm^2; 6 h and 24 h
Description: The NHKs cells were plated in the specific culture medium and maintained in culture for 24±2 h to allow adhesion to the plate. Then, the plates identified as +UVB and +G01/UVB were respectively exposed, in the irradiation medium, to a UVB dose of 25 mJ/cm^2, while the control plates (Ctr) and those treated only with the compound under examination (G01) were maintained in the dark and at room temperature for a period of time equal to the irradiation time. The irradiation medium was then replaced with the culture medium containing the compound G01, in a concentration of 90 μM. Based on the preliminary results obtained on a broader time range, post-treatment times of 6 h and 24 h were selected, after which the plates were processed according to the procedure described in the work instruction specific for the DNA extraction. The CPDs determination was performed using a specific ELISA kit following the procedure described in the user manual.

[5] = system: NHKs cells; assay: Immunofluorescence of phosphorylated histone γH2AX after UVA or UVB irradiation and subsequent treatment with G01; type: cell-based, human; conditions: post-treatment 90 μM; UVA 10 J/cm^2 or UVB 25 mJ/cm^2; 24 h; vs cells only irradiated
Description: The NHKs cells were plated in the specific culture medium and maintained in culture for 24±2 h to allow adhesion to the plate. Subsequently, the plates identified as +UVA, +UVA/G01 post, UVB, and +UVB/G01 post were respectively exposed, in irradiation medium, to doses of UVA of 10 J/cm^2 or UVB of 25 mJ/cm^2. The irradiation medium was then replaced with the culture medium containing the compound of the invention G01, in a concentration of 90 μM. Based on preliminary results obtained on a broader time range, a post-treatment time of 24 h was selected, after which the plates were processed for the immunofluorescence determination of the protein expression of the phosphorylated histone γH2AX, whose expression is associated to the amount of DNA damage (double strand breaks). The protein expression of the phosphorylated histone γH2AX after treatment with the compound of the invention G01, or only after irradiation with UVA/UVB, was compared with the expression in the control cells.

[6] = system: primary cultures of human keratinocytes, NHKs; assay: Cell viability (incorporation of NR) after pre-treatment with G01 and subsequent UV irradiation; type: cell-based; conditions: pre-treatment 24±2 h; UVA 10 J/cm^2, UVB 25 mJ/cm^2; particularly 48 h after irradiation; particularly significant at 90 μM
Description: The cells were plated in the specific culture medium and maintained in culture for 24±2 h to allow adhesion to the plate. The cells were treated for 24±2 h with the concentrations of the compound G01 under evaluation, selected based on the previous results. Subsequently, the cells in the plates identified as +UVA and +UVB were respectively exposed, in the irradiation medium, to doses of UVA of 10 J/cm^2 and UVB of 25 mJ/cm^2, while the control plate was maintained in the dark and at room temperature for a period of time equal to the irradiation time. The irradiation medium was then replaced with the culture medium. The cell viability was measured (incorporation of NR) 24±2 h and 48±2 h after the irradiation, following examination of the morphology of the cells under a microscope, in the absence and the presence of treatment with G01 and/or UVA/UVB irradiation. The cell viability values for each condition tested were compared with the value obtained from the control and plotted on a graph to highlight any differences between the various experimental conditions.

Structure (SMILES): C/C=C/C=C/C=C/C(=O)O [G01, 2,4,6-trans-octatrienoic acid]
- apoptosis (positivity for annexin V) induced by UVA and UVB [1]: reduce the apoptosis
- cell viability after UVA/UVB irradiation [2]: significant protective action
- apoptosis (positivity for annexin V) induced by UVA and UVB [3]: reduce the apoptosis
- CPDs products (pyrimidine cyclobutane dimers) [4]: promote the removal of CPDs products
- fraction of phosphorylated histone γH2AX [5]: significant reduction
- cell viability after UVA/UVB irradiation [6]: general protective effect of cell viability
